Experimental data: patent US20240139196A1, “COMBINATION TREATMENTS IN DIFFICULT TO TREAT PATIENTS WITH ADVANCED AND/OR METASTATIC TROP-2 OVEREXPRESSING CANCERS” (G1 Therapeutics, Inc., priority 2021, published 2024)
“And” between values parts separate entries of the source, which are not always exact repeats. Identical values can stand only once. “Also recorded” adds a separate entry of the source.

Key:
[1] = system: patients with mUC; conditions: in vivo; cited from earlier work
[2] = system: patients with unresectable locally advanced or metastatic TNBC who received at least 2 prior treatments; assay: Phase 2 single-arm open-label study of trilaciclib administered prior to sacituzumab govitecan-hziy (NCT05113966); assay type: in vivo, human; conditions: for Grade ≥3 TRAEs related to the named study drug / patients with AEs related to the named study drug: combination study, attribution by investigators
Description: Early results from initial human clinical trials (see, e.g., NCT05113966) have shown trilaciclib's ability to drastically reduce side effects associated with sacituzumab govitecan administration, including a reduction in the incidence of severe (Grade 3/4) neutropenia (see, for example, Example 1, FIG. 2A). In the initial studies, 8 female patients (median age 55.0 years) had been enrolled and completed a median 3 (range 1-6) 21-day cycles, wherein sacituzumab govitecan was administered on days 1 and 8 of each 21-day cycle, and trilaciclib was administered over a 30 minute intravenous administration within 4 hours prior to administration of sacituzumab govitecan on days 1 and 8 of each 21-day cycle (see, e.g., FIG. 1). All patients had received a prior taxane and 7 had received a prior immune checkpoint inhibitor (5 atezolizumab, 2 pembrolizumab; 4 in the adjuvant setting, 3 in the metastatic setting). Severe (Grade 3/4) neutropenia occurred in only 1 patient (12.5% with trilaciclib compared with 52% in the ASCENT study). No patients had Grade 3/4 anemia or thrombocytopenia, and none had febrile neutropenia or a serious infection. Granulocyte colony-stimulating factors were administered to 2 patients (25%) and 1 patient required intravenous antibiotics. No patients required red blood cell/platelet transfusions or erythropoiesis-stimulating agents. […] There was only 1 treatment-related adverse event of diarrhea.
FIG. 1 is a schematic of a human clinical trial assessing the safety and efficacy of trilaciclib administered with sacituzumab govitecan-hziy (Trodelvy®) in patients with locally advanced or metastatic TNBC who received at least 2 prior treatments, at least 1 in the metastatic setting. The study will include 3 study phases: Screening Phase, treatment Phase, and Survival Follow-up Phase. The treatment phase consists of 21-day cycles: Trilaciclib will be administered IV prior to sacituzumab govitecan-hziy infusions. Trilaciclib will be administered via IV prior to sacituzumab govitecan-hziy administration at 240 mg/m^2. Sacituzumab govitecan-hziy will be administered via IV at 10 mg/kg. The study will include 3 study phases: Screening Phase, Treatment Phase, and Survival Follow up Phase. The Treatment Phase begins on the day of the first dose of study treatment and completes at the Safety Follow-up Visit. The first Survival Follow-up assessment should occur approximately 3 months after the End of Treatment Visit. DC=discontinuation, PD=Progressive disease, PI=Principal Investigator, WD=Withdraw.
An exploratory Phase 2, multicenter, open-label study evaluating the safety and efficacy of trilaciclib administered with sacituzumab govitecan-hziy in patients with unresectable locally advanced or metastatic TNBC who received at least 2 prior treatments, at least 1 in the metastatic setting, is provided herein.
Trilaciclib plus sacituzumab govitecan-hziy will be administered intravenously (IV) in 21-day cycles as follows: • Trilaciclib 240 mg/m^2 administered as a 30-minute IV infusion completed within 4 hours prior to the start of sacituzumab govitecan-hziy on Day 1 and Day 8 of each 21-day treatment cycle. • Sacituzumab govitecan-hziy 10 mg/kg administered IV on Day 1 and Day 8 of each 21-day treatment cycle.
The first infusion of sacituzumab govitecan-hziy is administered over 3 hours and the patient is observed during the infusion and for at least 30 minutes following the initial dose for signs or symptoms of infusion-related reactions. Subsequent infusions of sacituzumab govitecan-hziy may be administered over 1 to 2 hours if prior infusions were tolerated and patients should be observed during the infusion and for at least 30 minutes after infusion. […]

[3] = system: patients with metastatic urothelial carcinoma (mUC) progressing after platinum-based chemotherapy and ICIs; conditions: following progression; cited from earlier work
[4] = system: patients with PD-L1 positive locally advanced unresectable/metastatic TNBC; conditions: cited from earlier work
[5] = system: patients with unresectable locally advanced/metastatic triple-negative breast cancer, PD-L1 positive; conditions: paclitaxel with vs without atezolizumab, cited from earlier work
[6] = system: patients with locally recurrent unresectable or metastatic TNBC whose tumors express PD-L1 (CPS ≥10); conditions: cited from earlier work
[7] = system: patients with unresectable locally advanced or metastatic triple-negative breast cancer (mTNBC); conditions: cited from earlier work
[8] = system: patients with metastatic TNBC; conditions: N=108; cited from earlier work
[9] = system: patients with locally advanced or mUC after platinum-containing chemotherapy and PD-1 or PD-L1 inhibitor; conditions: cited from earlier work
[10] = system: patients treated with sacituzumab govitecan-hziy; conditions: cited from earlier work
[11] = trilaciclib prior to sacituzumab govitecan, 8 patients
[12] = trilaciclib prior to sacituzumab govitecan, RECIST v1.1, 8 patients
[13] = mTNBC relapsed after at least two prior chemotherapies
[14] = vs physician's choice of single-agent chemotherapy

Compound: COc1cc(OC)cc(N(CCNC(C)C)c2ccc3ncc(-c4cnn(C)c4)nc3c2)c1 [erdafitinib]
- objective response rates (ORRs) [1]: approximately 40%

Compound: CN1CCN(c2ccc(Nc3ncc4cc5n(c4n3)C3(CCCCC3)CNC5=O)nc2)CC1 [trilaciclib, 2′-((5-(4-methylpiperazin-1-yl)pyridin-2-yl)amino)-7′,8′-dihydro-6′H-spiro(cyclohexane-1,9′-pyrazino(1′,2′:1,5)pyrrolo(2,3-d)pyrimidin)-6′-one]
- Grade ≥3 TRAEs related to the named study drug ([2]; 8 patients): Grade 4 neutrophil count decreased
- patients with AEs related to the named study drug ([2]; 8 patients): 2 patients
- effect of inclusion of trilaciclib on side effects associated with sacituzumab govitecan ([2]; initial studies, compared with ASCENT study): drastically reduces the side effects
- Severe (Grade 3/4) neutropenia, number of patients ([2]; trilaciclib 240 mg/m^2 IV within 4 hours prior to sacituzumab govitecan-hziy 10 mg/kg, days 1 and 8 of 21-day cycles, 8 patients): 1 patient
- tolerability ([2]; trilaciclib administered prior to sacituzumab govitecan, preliminary data): well tolerated
- Severe (Grade 3/4) neutropenia, percentage of patients ([2]; trilaciclib prior to sacituzumab govitecan, days 1 and 8 of 21-day cycles, 8 patients): 12.5%
- Grade 3/4 anemia, patients [2, 11]: No patients
- Grade 3/4 thrombocytopenia, patients [2, 11]: No patients
- Granulocyte colony-stimulating factors administered, number of patients [2, 11]: 2 patients
- Granulocyte colony-stimulating factors administered, percentage of patients [2, 11]: 25%
- febrile neutropenia, patients [2, 11]: none
- patients with Grade ≥3 TRAEs [2, 11]: Two
- patients with ≥1 treatment-related adverse event (TRAE) [2, 11]: 5 patients
- required erythropoiesis-stimulating agents, patients [2, 11]: No patients
- required intravenous antibiotics, number of patients [2, 11]: 1 patient
- required red blood cell/platelet transfusions, patients [2, 11]: No patients
- serious adverse events reported to date [2, 11]: no serious AEs; also recorded: no serious adverse events
- serious infection, patients [2, 11]: none
- withdrawn due to an adverse event, patients [2, 11]: No patients
- treatment-related adverse event (TRAE) of diarrhea, number ([2]; trilaciclib prior to sacituzumab govitecan, 8 patients, trilaciclib- and sacituzumab govitecan-related): 1
- partial response, number of patients [2, 12]: one
- stable disease, number of patients [2, 12]: three

Compound: CC[C@]12C=CCN3CC[C@@]4(c5cc([C@@]6(C(=O)OC)C[C@@H]7C[C@@H](C(C)(F)F)CN(Cc8c6[nH]c6ccccc86)C7)c(OC)cc5N(C)[C@H]4[C@@](O)(C(=O)OC)[C@@H]1OC(C)=O)[C@@H]32 [vinflunine]
- median overall survival (OS) [3]: 7-8 months
- response rates [3]: approximately 10%

Compound: atezolizumab: a programmed death-ligand 1 (PD-L1) blocking antibody (immune checkpoint inhibitor)
- survival (lived for an average of) ([4]; PD-L1 positive subset, atezolizumab or placebo plus nab-paclitaxel): 25 months
- median progression-free survival (PFS) ([4]; PD-L1 positive tumors, atezolizumab plus nab-paclitaxel vs placebo plus nab-paclitaxel): 7.4 months
- PFS hazard ratio [HR] ([4]; PD-L1 positive, atezolizumab plus nab-paclitaxel vs placebo plus nab-paclitaxel): 0.60
- PFS HR ([5]; frontline): 0.82
- survival HR [5]: 1.11

Compound: pembrolizumab: PD-1 inhibitor given in combination with chemotherapy for PD-L1 expressing TNBC
- median PFS ([6]; pembrolizumab plus chemotherapy arm): 9.7 months
- PFS HR ([6]; pembrolizumab plus chemotherapy vs placebo arm): 0.65

Compound: sacituzumab govitecan
- Grade ≥3 TRAEs related to the named study drug ([2]; 8 patients): Grade 3 alopecia and Grade 3 neutropenia; also recorded: Grade 4 neutrophil count decreased
- patients with AEs related to the named study drug ([2]; 8 patients): 5 patients
- Severe (Grade 3/4) neutropenia, patients ([7]; ASCENT study, without trilaciclib): 52%
- G-CSF used as a rescue therapy, patients ([7]; ASCENT study): 44%
- adverse reaction leading to a dose reduction, patients ([7]; ASCENT study): 22%
- adverse reaction leading to treatment interruption, patients ([7]; ASCENT study): 45%
- permanently discontinued for adverse reactions, patients ([7]; mTNBC patients, ASCENT study): 5%
- median overall survival (OS) [7, 13]: 11.8 months
- median progression free survival (PFS) [7, 13]: 4.8 months
- OS hazard ratio (HR) [7, 14]: 0.51
- PFS hazard ratio [HR] [7, 14]: 0.43
- ORR [8]: 33.3%
- median duration of response (DOR) [8]: 7.7 months
- patients having a DOR of ≥6 months [8]: 55.5%
- patients having a DOR of ≥12 months [8]: 16.7%
- objective (overall) response rate (ORR) ([9]; 10 mg/kg intravenously, days 1 and 8 of a 21-day cycle, 112 patients, RECIST 1.1): 27.7%
- median duration of response (DOR) ([9]; 10 mg/kg intravenously, days 1 and 8 of a 21-day cycle): 7.2 months and 7.1 months
- complete responses ([9]; 112 patients): 5.4%
- partial responses ([9]; 112 patients): 22.3%
- Diarrhea, patients ([10]; all grades, all patients treated): 65%
- neutropenia, patients ([10]; all grades): 61%
- Grade 3-4 diarrhea, patients ([10]; all patients treated): 12%
- Grade 3-4 neutropenia, patients ([10]; in vivo): 47%
- Neutropenic colitis, patients ([10]; in vivo): 0.5%
- febrile neutropenia, patients ([10]; in vivo): 7%
- intestinal perforation following diarrhea, number of patients ([10]; in vivo): One
